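Growth conditions: 96-well plates. Treatment: test compound, 48 hours, 5 concentrations. Analysis: linear interpolation between bracketing concentrations; unreached endpoints set to highest concentration. GI50 is the concentration that inhibits growth by half. TGI is the concentration that stops growth completely.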
Tests used:
Assay in all cases: NCI-60 cell line screen, 48 h
BT-549 breast = tested on: BT-549 breast
CCRF-CEM leukemia = tested on: CCRF-CEM leukemia
EKVX NSCLC = tested on: EKVX NSCLC
K-562 leukemia = tested on: K-562 leukemia
MDA-N = tested on: MDA-N
NCI-H226 lung = tested on: NCI-H226 lung
NCI/ADR-RES ovarian = tested on: NCI/ADR-RES ovarian
PC-3 prostate = tested on: PC-3 prostate
SF-295 CNS = tested on: SF-295 CNS
SN12C renal = tested on: SN12C renal

Row | SMILES | TGI (BT-549 breast) | TGI (CCRF-CEM leukemia) | GI50 (EKVX NSCLC) | TGI (EKVX NSCLC) | TGI (K-562 leukemia) | GI50 (MDA-N) | TGI (MDA-N) | GI50 (NCI-H226 lung) | TGI (NCI-H226 lung) | GI50 (NCI/ADR-RES ovarian) | TGI (NCI/ADR-RES ovarian) | GI50 (PC-3 prostate) | TGI (PC-3 prostate) | GI50 (SF-295 CNS) | TGI (SF-295 CNS) | GI50 (SN12C renal) | TGI (SN12C renal)
1 | Cc1cccc2nc3cccc(C(=O)NCCC[N+](C)(CCCNC(=O)c4cccc5nc6cccc(C)c6nc45)Cc4c([N+](=O)[O-])ncn4C)c3nc12 | > 1100 µM | > 1100 µM | 443 µM | > 1100 µM | > 1100 µM | 18.1 µM | > 1100 µM | 0.11 µM | 267 µM | 131 µM | > 1100 µM | 6.47 µM | > 1100 µM | 25 µM | > 1100 µM | 150 µM | > 1100 µM
2 | COc1ccc(/C=C2\CC3C4CC=C5C[C@@H](O)CC[C@]5(C)C4CC[C@]3(C)\C2=N\O)cc1OC (some centres not stated) | > 100 µM | > 100 µM |  | > 100 µM | > 100 µM |  | > 100 µM |  | > 100 µM |  | > 100 µM |  | > 100 µM |  | 80.9 µM |  | > 100 µM
3 | COC(=O)c1ccc(CCc2cc(O)ccc2O)cc1 | 25.6 µM | > 26.8 µM |  | 32.4 µM | > 31.6 µM |  | 20.5 µM |  | 38.6 µM |  | > 90.1 µM |  | 17.5 µM |  | > 70.5 µM |  | 29.3 µM
